Test results taken from patent US8148424B2, “Tocopherols, tocotrienols, other chroman and side chain derivatives and uses thereof” (Research Development Foundation, priority 1998, dated 2012).
≈ marks a conversion by molar mass, not a printed value.

Columns and labels:
ME-180 = experiment: Bioassay for apoptosis (apoptotic EC50); type: cell-based, human; settings: for apoptotic EC50: ME-180, unit not given, in µg/mL; for EC50: Homo sapiens, ME-180, ME-180, unit inferred
Method: (§1) Cells were cultured at 1.5×10^5 cells/well in 12 well plates. Cells were allowed to adhere overnight, then incubated with novel test compounds at 0.01, 0.1, 1, 5, 10 & 20 μg/mL for 1, 2 and 3 days. After treatment, cells (floating+trypsin released adherent cells) were pelleted, washed and stained with 2 μg/ml DAPI (4′,6-diamidine-2′-phenylindole dihydrochloride) in 100% methanol for 15 minutes at 37° C. and/or 3′-OH ends resulting from DNA fragmentation were detected with the TUNEL (terminal deoxynucleotidyl transferase-mediated dUTP-X 3′ nick end-labeling) technique, and then viewed using a Zeiss ICM 405 microscope. Cells whose nucleus contained clearly condensed or fragmented chromatin or stained for fragmented DNA in the TUNEL assay were scored as apoptotic. Data are presented as percent cells undergoing apoptosis.

[1] = tested on: human cancer cells from a wide variety of cell lineages; experiment: Apoptosis induction in a battery of tumor cells; type: cell-based; settings: breast, prostate, leukemia/lymphoid, cervical, ovarian, endometrial, colon, lung cell lines
Method: as §1

C-170 = experiment: Bioassay for apoptosis (apoptotic EC50); type: cell-based, human; settings: for EC50: Homo sapiens, C170, C-170, unit inferred; for apoptotic EC50: C-170, unit not given, in µg/mL
Method: as §1

MCF-7 = experiment: Bioassay for apoptosis (apoptotic EC50); type: cell-based, human; settings: for EC50: Homo sapiens, MCF7, MCF-7, unit inferred; for apoptotic EC50: MCF-7, unit not given, in µg/mL
Method: as §1

MDA-MB-231 = experiment: Bioassay for apoptosis (apoptotic EC50); type: cell-based, human; settings: for EC50: Homo sapiens, MDA-MB-231, MDA-MB-231, unit inferred; for apoptotic EC50: MDA-MB-231, unit not given, in µg/mL
Method: as §1

MDA-MB-435 = experiment: Bioassay for apoptosis (apoptotic EC50); type: cell-based, human; settings: for EC50: Homo sapiens, MDA-MB-435, MDA-MB-435, unit inferred, read-out: apoptotic EC50; for apoptotic EC50: MDA-MB-435, unit not given
Method: as §1

RL-95-2 = experiment: Bioassay for apoptosis (apoptotic EC50); type: cell-based, human; settings: for EC50: Homo sapiens, RL95-2, RL-95-2, unit inferred
Method: as §1

HL-60 = experiment: Bioassay for apoptosis (apoptotic EC50); type: cell-based, human; settings: for apoptotic EC50: HL-60, unit not given, in µg/mL
Method: as §1

LnCaP = experiment: Bioassay for apoptosis (apoptotic EC50); type: cell-based, human; settings: for apoptotic EC50: unit not given, in µg/mL; for EC50: Homo sapiens, unit inferred
Method: as §1

PC-3 = experiment: Bioassay for apoptosis (apoptotic EC50); type: cell-based, human; settings: PC-3; unit not given; in µg/mL
Method: as §1

[2] = tested on: HT-29 Human Colon Cancer Cells Transplanted into Nude Mice; experiment: Preclinical chemotherapeutic xenograft study; type: in vivo; settings: for Mean tumor Weights (mg) Following Treatments / Percent mean tumor weight gain (mg) following treatments: positive control 30 mg/kg daily for 5 days
Method: (§2) For the preclinical chemotherapeutic studies, in the absence of an maximum tolerated dose, the mice are supplemented with 30 and 20 mgs/0.1 ml by gavage daily for 21 days. Compound 1 is dissolved in 100% ethanol at 2 grams of compound 1/5 mls of ethanol, and diluted in peanut oil (nonsupplemented vitamin E) to yield 30 and 20 mgs of compound 1 per 0.1 ml. Vehicle control consisted of a mixture of ethanol and peanut oil equivalents. The preclinical chemotherapeutic studies are conducted with compound 1, utilizing human MDA-MB-435 human breast cancer cells, human DU-145 prostate cancer cells, and human HT-20 colon tumor cells transplanted into Balb/c immune compromised nude mice.
(§3) A total of 40 immune compromised nude mice are utilized for testing each test compound (two treatment groups at 20 and 30 mg/day) in each tumor cell type. […] Tumor cells are transplanted subcutaneously into the left flank and permitted to grow to approximately 70 mg in size, test compound treatments by daily gavage are initiated, and continue for a total of 21 days. Mice are monitored daily for tumor size by caliper measurements. Mice are treated for 21 days; however, the mice are sacrificed when the tumors of the vehicle control reached 500 mg in weight. At the completion of the protocol, tumors are excised and tumor size established by weight. At the time of sacrifice, serum, tumor, and heart muscle are taken from animals in the two compound 1 test groups in order to establish levels of compound 1 via HPLC analyses (data not included). The chemotherapeutic effectiveness of compound 1 administered daily at 30 and 20 mgs/day is determined by comparing the tumor size of the two treatment groups with the vehicle control group for each of the three tumor types, and by comparing the size of the tumor in the two treatment groups with the tumor group from the positive control. Treatment is for 21 days, experiments are continued until mean weight of tumor for vehicle control reaches 500 mgs.

HMEC = experiment: Bioassay for apoptosis (apoptotic EC50); type: cell-based; settings: Homo sapiens, unit inferred
Method: as §1

MCF-10A = experiment: Bioassay for apoptosis (apoptotic EC50); type: cell-based; settings: Homo sapiens, unit inferred
Method: as §1

[3] = tested on: DU-145 Human Prostate Cancer Cells Transplanted into Nude Mice; experiment: Preclinical chemotherapeutic xenograft study; type: in vivo; settings: for Mean tumor Weights (mg) Following Treatments / Percent mean tumor weight gain (mg) following treatments: positive control 1 mg/kg i.v. daily for 5 days
Method: as §2, §3

[4] = tested on: MDA-MB-435 Human Breast Cancer Cells Transplanted into Nude Mice; experiment: Preclinical chemotherapeutic xenograft study; type: in vivo; settings: for Percent mean tumor weight gain (mg) following treatments / Mean tumor Weights (mg) Following Treatments: positive control 20 mg/kg i.p. daily for 5 days
Method: as §2, §3

Compound: 2-(2,5,7,8-tetramethyl-(2R-(4R,8,12-trimethyltridecyl)chroman-6-yloxy)triethylammonium sulfate [Compound 21]
- apoptotic EC50 (ME-180): 1-5
- growth inhibitory (apoptotic inducing) properties specific for human cancer cells [1]: effective

Compound: Cc1c(C)c2c(c(C)c1OCC(=O)O)CCC(C)(CCCC(C)CCCC(C)CCCC(C)C)O2 (racemic) [Compound 15, 2,5,7,8-tetramethyl-(2RS-(4RS,8RS,12-trimethyltridcyl)chroman-6-yloxy)acetic acid]
- EC50 (C-170): > 20 µg/mL
- EC50 (MCF-7): 20 to 30 µg/mL (≈ 40.9 to 61.4 µM)
- EC50 (MDA-MB-231): 20 to 30 µg/mL (≈ 40.9 to 61.4 µM)
- EC50 (MDA-MB-435): 20 to 30 µg/mL (≈ 40.9 to 61.4 µM)
- EC50 (ME-180): > 20 µg/mL
- EC50 (RL-95-2): > 20 µg/mL
- growth inhibitory (apoptotic inducing) properties specific for human cancer cells [1]: effective

Compound: Cc1c(C)c2c(c(C)c1OCCC(=O)O)CC[C@@](C)(CCC[C@H](C)CCC[C@H](C)CCCC(C)C)O2 [Compound 2, 2,5,7,8-tetramethyl-(2R-(4R,8R,12-trimethyltridecyl)chroman-6-yloxy) propionic acid]
- apoptotic EC50 (C-170): 10-20
- apoptotic EC50 (HL-60): 10-20
- apoptotic EC50 (LnCaP): 5-10
- apoptotic EC50 (MCF-7): 20-30
- apoptotic EC50 (MDA-MB-231): 10-20
- apoptotic EC50 (MDA-MB-435; in µg/mL): 10-20
- apoptotic EC50 (ME-180): 5-10
- apoptotic EC50 (PC-3): 5-10
- growth inhibitory (apoptotic inducing) properties specific for human cancer cells [1]: effective

Compound: Cc1c(C)c2c(c(C)c1OCCCC(=O)O)CC[C@@](C)(CCC[C@H](C)CCC[C@H](C)CCCC(C)C)O2 [Compound 3, 2,5,7,8-tetramethyl-(2R-(4R,8R,12-trimethyltridecyl)chroman-6-yloxy) butyric acid]
- apoptotic EC50 (C-170): 10-20
- apoptotic EC50 (HL-60): 10-20
- apoptotic EC50 (LnCaP): 5-10
- apoptotic EC50 (MCF-7): 20-30
- apoptotic EC50 (MDA-MB-231): 5-10
- apoptotic EC50 (MDA-MB-435; in µg/mL): 5-10
- apoptotic EC50 (ME-180): 10-20
- apoptotic EC50 (PC-3): 5-10
- apoptotic EC50 (RL-95-2; RL-95-2, unit not given, in µg/mL): 10-20
- growth inhibitory (apoptotic inducing) properties specific for human cancer cells [1]: effective

Compound: O=c1[nH]cc(F)c(=O)[nH]1 [Compound 5-FU, 5 Fluorouracil, reference compound]
- Mean tumor Weights (mg) Following Treatments ([2]; day 1): 59.3 mg
- Percent mean tumor weight gain (mg) following treatments ([2]; day 1): 100%
- Mean tumor Weights (mg) Following Treatments ([2]; day 5): 87.5 mg
- Percent mean tumor weight gain (mg) following treatments ([2]; day 5): 147.6%
- Mean tumor Weights (mg) Following Treatments ([2]; day 8): 105.8 mg
- Percent mean tumor weight gain (mg) following treatments ([2]; day 8): 178.4%
- Mean tumor Weights (mg) Following Treatments ([2]; day 12): 145.8 mg
- Percent mean tumor weight gain (mg) following treatments ([2]; day 12): 245.9%
- Mean tumor Weights (mg) Following Treatments ([2]; day 15): 141.6 mg
- Percent mean tumor weight gain (mg) following treatments ([2]; day 15): 247.2%
- Mean tumor Weights (mg) Following Treatments ([2]; day 19): 212.3 mg
- Percent mean tumor weight gain (mg) following treatments ([2]; day 19): 358.0%
- Mean tumor Weights (mg) Following Treatments ([2]; day 22): 255.5 mg
- Percent mean tumor weight gain (mg) following treatments ([2]; day 22): 430.0%
- reduction of mean tumor growth vs vehicle control ([2]; positive control, 30 mg/kg daily for 5 days): 31.4%

Compound: Cc1c(C)c2c(c(C)c1OCC(N)=O)CC[C@@](C)(CCC[C@H](C)CCC[C@H](C)CCCC(C)C)O2 [Compound 10, 2,5,7,8-tetramethyl-(2R-(4R,8R,12-trimethyltridecyl)chroman-6-yloxy)acetamide]
- EC50 (C-170): > 20 µg/mL
- EC50 (HL-60; Homo sapiens, HL-60, HL-60, unit inferred): > 20 µg/mL
- EC50 (LnCaP): > 20 µg/mL
- EC50 (MCF-7): > 20 µg/mL
- EC50 (MDA-MB-231): > 20 µg/mL
- EC50 (MDA-MB-435): > 20 µg/mL
- EC50 (ME-180): > 20 µg/mL
- EC50 (RL-95-2): > 20 µg/mL
- EC50 (HMEC): > 20 µg/mL
- EC50 (MCF-10A): > 20 µg/mL

Compound: Cc1c(C)c2c(c(C)c1OCC(=O)O)CC[C@](C)(C(=O)O)O2 [Compound 16]
- EC50 (MCF-7): > 20 µg/mL
- EC50 (MDA-MB-231): > 20 µg/mL
- EC50 (MDA-MB-435): > 20 µg/mL

Compound: C/C(=C\CSc1cc(C)c(OCC(=O)O)c(C)c1C)CCCC(C)CCCC(C)CCCC(C)C (stereo not drawn) [Compound 27, E.Z,RS,RS,RS-(phytyltrimethylbenzenethiol-6-yloxy)acetic acid]
- EC50 (LnCaP): 10 to 20 µg/mL (≈ 19.8 to 39.6 µM)
- EC50 (MCF-7): 10 to 20 µg/mL (≈ 19.8 to 39.6 µM)
- growth inhibitory (apoptotic inducing) properties specific for human cancer cells [1]: effective

Compound: Cc1c(C)c(OCC(=O)O)c(C)c2c1NC(C)(CCCC(C)CCCC(C)CCCC(C)C)CC2 (stereo not drawn) [Compound 39, 1-Aza-α-tocopherol-6-yloxyl-acetic acid]
- apoptotic EC50 (MDA-MB-435; in µg/mL): 10-20
- growth inhibitory (apoptotic inducing) properties specific for human cancer cells [1]: effective

Compound: Cc1c(C)c2c(c(C)c1N=Nc1ccc([N+](=O)[O-])cc1[N+](=O)[O-])CCC(C)(CCCC(C)CCCC(C)CCCC(C)C)N2 (stereo not drawn) [Compound 43]
- apoptotic EC50 (MDA-MB-435): PPT

Compound: O=C1c2c(O)ccc(O)c2C(=O)c2c(NCCNCCO)ccc(NCCNCCO)c21 [Mitoxantrone, reference compound]
- Mean tumor Weights (mg) Following Treatments ([3]; day 1): 66.8 mg
- Percent mean tumor weight gain (mg) following treatments ([3]; day 1): 100%
- Mean tumor Weights (mg) Following Treatments ([3]; day 5): 107.2 mg
- Percent mean tumor weight gain (mg) following treatments ([3]; day 5): 160.5%
- Mean tumor Weights (mg) Following Treatments ([3]; day 8): 141.1 mg
- Percent mean tumor weight gain (mg) following treatments ([3]; day 8): 211.2%
- Mean tumor Weights (mg) Following Treatments ([3]; day 12): 185.4 mg
- Percent mean tumor weight gain (mg) following treatments ([3]; day 12): 277.5%
- Mean tumor Weights (mg) Following Treatments ([3]; day 15): 205.2 mg
- Percent mean tumor weight gain (mg) following treatments ([3]; day 15): 307.2%
- Mean tumor Weights (mg) Following Treatments ([3]; day 19): 325.3 mg
- Percent mean tumor weight gain (mg) following treatments ([3]; day 19): 487.0%
- Mean tumor Weights (mg) Following Treatments ([3]; day 22): 389.4 mg
- Percent mean tumor weight gain (mg) following treatments ([3]; day 22): 582.9%
- reduction of mean tumor growth vs vehicle control ([3]; positive control, 1 mg/kg daily intravenously for 5 days): 27.9%

Compound: CC(=O)O[C@H]1C(=O)[C@@]2(C)[C@H]([C@H](OC(=O)c3ccccc3)[C@]3(O)C[C@H](OC(=O)[C@H](O)[C@@H](NC(=O)c4ccccc4)c4ccccc4)C(C)=C1C3(C)C)[C@]1(OC(C)=O)CO[C@@H]1C[C@@H]2O [Taxol, reference compound]
- Percent mean tumor weight gain (mg) following treatments ([4]; day 1): 100%
- Percent mean tumor weight gain (mg) following treatments ([4]; day 4): 101.1%
- Mean tumor Weights (mg) Following Treatments ([4]; day 7): 38.2 mg
- Percent mean tumor weight gain (mg) following treatments ([4]; day 7): −46.0%
- Mean tumor Weights (mg) Following Treatments ([4]; day 10): 11.7 mg
- Percent mean tumor weight gain (mg) following treatments ([4]; day 10): −83.7%
- Mean tumor Weights (mg) Following Treatments ([4]; day 14): 5.7 mg
- Percent mean tumor weight gain (mg) following treatments ([4]; day 14): −91.8%
- Mean tumor Weights (mg) Following Treatments ([4]; day 17): 3.6 mg
- Percent mean tumor weight gain (mg) following treatments ([4]; day 17): −99.5%
- Mean tumor Weights (mg) Following Treatments ([4]; day 21): 6.8 mg
- Percent mean tumor weight gain (mg) following treatments ([4]; day 21): −90.3%
- reduction of mean tumor growth vs vehicle control ([4]; positive control, 20 mg/kg intraperitoneally daily for 5 days): 90.3%
